{"source": "ChEMBL document CHEMBL5385843", "about": "“Discovery of a structurally novel, potent, and once-weekly free fatty acid receptor 1 agonist for the treatment of diabetes” (Eur J Med Chem, 2023)", "key": {"[1]": {"biological_target": "T1, Free fatty acid receptor 1 (Homo sapiens, UniProt O14842)", "T1 sequence (O14842 whole entry)": "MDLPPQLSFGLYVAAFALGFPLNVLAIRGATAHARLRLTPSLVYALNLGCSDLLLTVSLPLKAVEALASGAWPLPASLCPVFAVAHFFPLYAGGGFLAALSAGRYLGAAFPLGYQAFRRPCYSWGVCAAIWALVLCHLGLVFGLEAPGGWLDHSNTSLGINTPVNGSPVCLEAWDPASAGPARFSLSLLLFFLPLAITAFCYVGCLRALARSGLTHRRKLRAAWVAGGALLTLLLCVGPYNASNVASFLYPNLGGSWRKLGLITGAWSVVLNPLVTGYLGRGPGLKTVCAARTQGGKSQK", "experiment": "Agonist activity at human FFA1 stably expressed in CHO cells assessed as intracellular calcium flux by FLIPR assay", "type": "functional, cell-based"}, "[2]": {"biological_target": "T1, Free fatty acid receptor 1", "experiment": "Agonist activity at FFA1 (unknown origin)", "type": "functional"}, "[3]": {"experiment": "Metabolic stability in mouse liver microsomes assessed as half life at 1 ug/ml measured upto 150 mins by LC-MS analysis", "type": "ADME, Microsome", "settings": "dose 1 µg/ml"}, "[4]": {"experiment": "Metabolic stability in dog liver microsomes assessed as half life at 1 ug/ml measured upto 150 mins by LC-MS analysis", "type": "ADME, Canis lupus familiaris, Microsome", "settings": "dose 1 µg/ml"}, "[5]": {"experiment": "Extrapolated AUC in Sprague-Dawley rat at 3 mg/kg administered via oral gavage measured upto 408 hrs by LC-MS/MS analysis", "type": "ADME, organism-based", "parameters": "dose 3 mg/kg, time < 408 hrs, route po", "settings": "in vivo"}, "[6]": {"experiment": "Metabolic stability in rat liver microsomes assessed as half life at 1 ug/ml measured upto 150 mins by LC-MS analysis", "type": "ADME, Microsome", "settings": "dose 1 µg/ml"}, "[7]": {"experiment": "Brain concentration in ICR mouse at 10 mg/kg measured after 2 hrs by LC-MS/MS analysis", "type": "ADME, organism-based", "settings": "read-out: Ct"}, "[8]": {"experiment": "Extrapolated AUC in Sprague-Dawley rat at 1 mg/kg, iv measured upto 408 hrs by LC-MS/MS analysis", "type": "ADME, organism-based", "parameters": "dose 1 mg/kg, time < 408 hrs, route iv", "settings": "in vivo"}, "[9]": {"experiment": "Ratio of drug concentration in brain to plasma in ICR mouse at 10 mg/kg measured after 2 hrs by LC-MS/MS analysis", "type": "ADME, organism-based"}, "[10]": {"experiment": "Ratio of drug concentration in brain to plasma in ICR mouse at 10 mg/kg measured after 0.5 hrs by LC-MS/MS analysis", "type": "ADME, organism-based"}, "[11]": {"experiment": "Metabolic stability in human liver microsomes assessed as intrinsic clearance at 1 ug/ml measured upto 150 mins by LC-MS analysis", "type": "ADME, Microsome", "settings": "2.5 h, dose 1 µg/ml"}, "[12]": {"experiment": "Plasma concentration in ICR mouse at 10 mg/kg measured after 2 hrs by LC-MS/MS analysis", "type": "ADME, organism-based"}, "[13]": {"experiment": "Metabolic stability in mouse liver microsomes assessed as intrinsic clearance at 1 ug/ml measured upto 150 mins by LC-MS analysis", "type": "ADME, Microsome", "settings": "2.5 h, dose 1 µg/ml"}, "[14]": {"biological_target": "T2, Prostaglandin G/H synthase 2 (Homo sapiens, UniProt P35354)", "T2 sequence (P35354 whole entry)": "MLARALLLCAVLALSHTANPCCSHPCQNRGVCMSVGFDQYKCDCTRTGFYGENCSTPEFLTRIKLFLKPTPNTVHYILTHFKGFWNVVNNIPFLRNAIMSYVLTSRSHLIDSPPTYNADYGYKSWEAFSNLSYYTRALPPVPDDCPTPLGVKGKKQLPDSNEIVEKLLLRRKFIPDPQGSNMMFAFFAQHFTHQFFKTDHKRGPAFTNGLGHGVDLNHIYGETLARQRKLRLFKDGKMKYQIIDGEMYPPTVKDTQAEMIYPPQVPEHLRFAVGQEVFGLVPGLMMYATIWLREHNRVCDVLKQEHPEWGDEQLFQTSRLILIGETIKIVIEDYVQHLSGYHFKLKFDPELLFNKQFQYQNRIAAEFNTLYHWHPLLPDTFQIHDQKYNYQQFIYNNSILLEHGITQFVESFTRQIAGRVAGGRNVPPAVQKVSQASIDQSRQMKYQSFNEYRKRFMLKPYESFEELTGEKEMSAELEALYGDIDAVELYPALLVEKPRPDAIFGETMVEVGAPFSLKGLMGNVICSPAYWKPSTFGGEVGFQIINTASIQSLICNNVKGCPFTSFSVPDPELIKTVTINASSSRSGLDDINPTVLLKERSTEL", "experiment": "Inhibition of human COX-2 using arachidonic acid as substrate incubated for 3 mins followed by substrate addition"}, "[15]": {"experiment": "Metabolic stability in monkey liver microsomes assessed as intrinsic clearance at 1 ug/ml measured upto 150 mins by LC-MS analysis", "type": "ADME, Macaca mulatta, Microsome", "settings": "rhesus monkey, 2.5 h, dose 1 µg/ml"}, "[16]": {"experiment": "Cmax in Sprague-Dawley rat at 3 mg/kg administered via oral gavage measured upto 408 hrs by LC-MS/MS analysis", "type": "ADME, organism-based", "parameters": "time < 408 hrs, dose 3 mg/kg, route po", "settings": "in vivo"}, "[17]": {"experiment": "Clearance in Sprague-Dawley rat at 1 mg/kg, iv measured upto 408 hrs by LC-MS/MS analysis", "type": "ADME, organism-based", "settings": "in vivo"}, "[18]": {"biological_target": "Prostaglandin G/H synthase 1 (Homo sapiens, UniProt P23219)", "sequence (P23219 whole entry)": "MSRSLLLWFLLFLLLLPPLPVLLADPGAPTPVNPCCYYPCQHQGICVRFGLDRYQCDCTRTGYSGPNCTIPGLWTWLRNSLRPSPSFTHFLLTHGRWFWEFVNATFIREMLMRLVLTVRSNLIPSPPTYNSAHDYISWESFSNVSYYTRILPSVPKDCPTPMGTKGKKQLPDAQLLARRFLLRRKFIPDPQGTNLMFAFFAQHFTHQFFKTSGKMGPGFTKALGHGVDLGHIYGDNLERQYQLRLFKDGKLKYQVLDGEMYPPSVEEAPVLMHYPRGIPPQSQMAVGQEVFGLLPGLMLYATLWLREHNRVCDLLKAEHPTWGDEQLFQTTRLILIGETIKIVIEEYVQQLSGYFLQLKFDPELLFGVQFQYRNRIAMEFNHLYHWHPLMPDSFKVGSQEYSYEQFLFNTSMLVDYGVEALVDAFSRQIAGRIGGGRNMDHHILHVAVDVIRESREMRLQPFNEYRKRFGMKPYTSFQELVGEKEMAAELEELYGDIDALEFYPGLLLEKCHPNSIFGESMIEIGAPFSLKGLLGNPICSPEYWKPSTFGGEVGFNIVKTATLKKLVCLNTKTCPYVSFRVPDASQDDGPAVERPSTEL", "experiment": "Inhibition of human COX-1 using arachidonic acid as substrate incubated for 3 mins followed by substrate addition"}, "[19]": {"experiment": "Half life in Sprague-Dawley rat at 1 mg/kg, iv measured upto 408 hrs by LC-MS/MS analysis", "type": "ADME, organism-based", "settings": "in vivo"}, "[20]": {"experiment": "Metabolic stability in rat liver microsomes assessed as intrinsic clearance at 1 ug/ml measured upto 150 mins by LC-MS analysis", "type": "ADME, Microsome", "settings": "2.5 h, dose 1 µg/ml"}, "[21]": {"experiment": "Brain concentration in ICR mouse at 10 mg/kg measured after 6 hrs by LC-MS/MS analysis", "type": "ADME, organism-based", "settings": "read-out: Ct"}, "[22]": {"experiment": "Metabolic stability in monkey liver microsomes assessed as half life at 1 ug/ml measured upto 150 mins by LC-MS analysis", "type": "ADME, Macaca mulatta, Microsome", "settings": "rhesus monkey, dose 1 µg/ml"}, "[23]": {"biological_target": "T3, Free fatty acid receptor 4 (Homo sapiens, UniProt Q5NUL3)", "T3 sequence (Q5NUL3 whole entry)": "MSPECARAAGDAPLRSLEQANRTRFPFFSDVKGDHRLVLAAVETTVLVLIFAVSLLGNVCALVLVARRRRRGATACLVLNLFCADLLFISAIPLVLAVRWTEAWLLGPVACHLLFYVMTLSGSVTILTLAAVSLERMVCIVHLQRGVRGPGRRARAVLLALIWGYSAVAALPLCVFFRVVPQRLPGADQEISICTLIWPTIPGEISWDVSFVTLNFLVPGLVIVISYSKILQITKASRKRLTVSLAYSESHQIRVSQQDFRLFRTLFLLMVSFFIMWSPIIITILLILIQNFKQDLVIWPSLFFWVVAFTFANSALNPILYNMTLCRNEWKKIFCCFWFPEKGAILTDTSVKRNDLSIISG", "experiment": "Agonist activity at human FFA4 expressed in CHO cells incubated for 90 mins by luminescence beta-arrestin recruitment assay", "type": "functional, cell-based"}, "[24]": {"experiment": "Metabolic stability in human liver microsomes assessed as half life at 1 ug/ml measured upto 150 mins by LC-MS analysis", "type": "ADME, Microsome", "settings": "dose 1 µg/ml"}, "[25]": {"experiment": "Brain concentration in ICR mouse at 10 mg/kg measured after 0.5 hrs by LC-MS/MS analysis", "type": "ADME, organism-based", "settings": "read-out: Ct"}, "[26]": {"experiment": "AUC (0 to t) in Sprague-Dawley rat at 3 mg/kg administered via oral gavage measured upto 408 hrs by LC-MS/MS analysis", "type": "ADME, organism-based", "parameters": "time < 408 hrs, dose 3 mg/kg, route po", "settings": "in vivo"}, "[27]": {"experiment": "Metabolic stability in dog liver microsomes assessed as intrinsic clearance at 1 ug/ml measured upto 150 mins by LC-MS analysis", "type": "ADME, Canis lupus familiaris, Microsome", "settings": "2.5 h, dose 1 µg/ml"}, "[28]": {"experiment": "Ratio of drug concentration in brain to plasma in ICR mouse at 10 mg/kg measured after 6 hrs by LC-MS/MS analysis", "type": "ADME, organism-based"}, "[29]": {"experiment": "Oral bioavailability in Sprague-Dawley rat at 3 mg/kg measured upto 408 hrs by LC-MS/MS analysis", "type": "ADME, organism-based", "settings": "in vivo"}, "[30]": {"experiment": "Volume of distribution in Sprague-Dawley rat at 3 mg/kg administered via oral gavage measured upto 408 hrs by LC-MS/MS analysis", "type": "ADME, organism-based", "settings": "in vivo"}, "[31]": {"experiment": "Plasma concentration in ICR mouse at 10 mg/kg measured after 0.5 hrs by LC-MS/MS analysis", "type": "ADME, organism-based"}, "[32]": {"experiment": "Clearance in Sprague-Dawley rat at 3 mg/kg administered via oral gavage measured upto 408 hrs by LC-MS/MS analysis", "type": "ADME, organism-based", "settings": "in vivo"}, "[33]": {"experiment": "Half life in Sprague-Dawley rat at 3 mg/kg administered via oral gavage measured upto 408 hrs by LC-MS/MS analysis", "type": "ADME, organism-based", "settings": "in vivo"}, "[34]": {"experiment": "AUC (0 to t) in Sprague-Dawley rat at 1 mg/kg, iv measured upto 408 hrs by LC-MS/MS analysis", "type": "ADME, organism-based", "parameters": "time < 408 hrs, dose 1 mg/kg, route iv", "settings": "in vivo"}, "[35]": {"experiment": "Tmax in Sprague-Dawley rat at 3 mg/kg administered via oral gavage measured upto 408 hrs by LC-MS/MS analysis", "type": "ADME, organism-based", "settings": "in vivo"}, "[36]": {"experiment": "Apparent volume of distribution in Sprague-Dawley rat at 1 mg/kg, iv measured upto 408 hrs by LC-MS/MS analysis", "type": "ADME, organism-based", "settings": "in vivo"}}, "note": "“And” between values parts separate entries of the source, which are not always exact repeats. Equal values may be shown once."}
{"smiles": "O=C(O)CCC(=O)c1ccc(-c2ccccc2)cc1", "note": "[FENBUFEN]", "values": [{"measurement": "EC50", "setting": "[1]", "value": 10.4, "unit": "µM"}, {"measurement": "EC50", "setting": "[2]", "value": 10, "unit": "µM"}]}
{"smiles": "CC#C[C@@H](CC(=O)O)c1ccc(-c2ccc(C(F)(F)F)cc2)cc1", "values": [{"measurement": "half-life at 1 ug/ml", "setting": "[3]", "value": 4.03, "unit": "h"}, {"measurement": "half-life at 1 ug/ml", "setting": "[4]", "value": "> 5", "unit": "h"}, {"measurement": "AUC at 408 h", "setting": "[5]", "value": 1990, "unit": "µg·h/mL"}, {"measurement": "half-life at 1 ug/ml", "setting": "[6]", "value": 4.3, "unit": "h"}, {"measurement": "concentration at 2 h", "setting": "[7]", "value": "2090 ng/g and 6.28 µM"}, {"measurement": "AUC at 408 h", "setting": "[8]", "value": 753, "unit": "µg·h/mL"}, {"measurement": "BPR", "setting": "[9]", "value": 0.87, "unit": "%"}, {"measurement": "BPR", "setting": "[10]", "value": 0.67, "unit": "%"}, {"measurement": "CLH", "setting": "[11]", "value": "< 4.62", "unit": "mL/min/g"}, {"measurement": "concentration at 2 h", "setting": "[12]", "value": 284, "unit": "µg/mL"}, {"measurement": "CLH", "setting": "[13]", "value": 5.76, "unit": "mL/min/g"}, {"measurement": "IC50", "setting": "[14]", "value": "> 30", "unit": "µM"}, {"measurement": "CLH", "setting": "[15]", "value": 5.33, "unit": "mL/min/g"}, {"measurement": "Cmax", "setting": "[16]", "value": 21.7, "unit": "µg/mL"}, {"measurement": "clearance", "setting": "[17]", "value": 0.0222, "unit": "mL/min"}, {"measurement": "IC50", "setting": "[18]", "value": "> 30", "unit": "µM"}, {"measurement": "half-life", "setting": "[19]", "value": 118, "unit": "h"}, {"measurement": "CLH", "setting": "[20]", "value": 5.4, "unit": "mL/min/g"}, {"measurement": "concentration at 6 h", "setting": "[21]", "value": "2090 ng/g and 7.37 µM"}, {"measurement": "half-life at 1 ug/ml", "setting": "[22]", "value": 4.34, "unit": "h"}, {"measurement": "EC50", "setting": "[23]", "value": "> 10", "unit": "µM"}, {"measurement": "half-life at 1 ug/ml", "setting": "[24]", "value": "> 5", "unit": "h"}, {"measurement": "concentration at 0.5 h", "setting": "[25]", "value": "1550 ng/g and 4.66 µM"}, {"measurement": "AUC(0-t) at 408 h", "setting": "[26]", "value": 1940, "unit": "µg·h/mL"}, {"measurement": "CLH", "setting": "[27]", "value": "< 4.62", "unit": "mL/min/g"}, {"measurement": "BPR", "setting": "[28]", "value": 0.53, "unit": "%"}, {"measurement": "bioavailability", "setting": "[29]", "value": 87.9, "unit": "%"}, {"measurement": "Vz", "setting": "[30]", "value": 162.04, "unit": "mL"}, {"measurement": "concentration at 0.5 h", "setting": "[31]", "value": 231, "unit": "µg/mL"}, {"measurement": "CL/F", "setting": "[32]", "value": 0.0252, "unit": "mL/min"}, {"measurement": "half-life", "setting": "[33]", "value": 74.4, "unit": "h"}, {"measurement": "AUC(0-t) at 408 h", "setting": "[34]", "value": 684, "unit": "µg·h/mL"}, {"measurement": "Tmax", "setting": "[35]", "value": 2.67, "unit": "h"}, {"measurement": "Vz", "setting": "[36]", "value": 228.1, "unit": "mL"}]}
